Legend:
Assay in all cases: normalised response (% of control), CellTox Green; higher = less cell death (100 = DMSO, 0 = benzethonium chloride kill control)
Settings in all cases: incubation time: 72 h
[1] = tested on: Hs578T
In short: (§1)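 Breast cancer cell lines (20 µl suspension) were seeded into 384-well plates holding compound at 5 concentrations in 10-fold steps over a compound-specific 10,000-fold range, then incubated 72 h. CellTox Green fluorescence (485/520 nm) was read first, then CellTiter-Glo luminescence after 10 min at room temperature. Each plate was normalised to 0.1 % DMSO (100) and a positive kill control (0). Each value is the normalised signal at a single concentration of the series.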

[2] = tested on: CAL-51
In short: as §1

[3] = tested on: DU-4475
In short: as §1

[4] = tested on: MCF-10A
In short: as §1

[5] = tested on: CAL-85-1
In short: as §1

[6] = tested on: BT-474
In short: as §1

[7] = tested on: MDA-MB-231
In short: as §1

[8] = tested on: MDA-MB-436
In short: as §1

[9] = tested on: HCC1143
In short: as §1

[10] = tested on: CAL-148
In short: as §1

[11] = tested on: CAL-120
In short: as §1

[12] = tested on: BT-549
In short: as §1

[13] = tested on: HCC1937
In short: as §1

[14] = tested on: MFM-223
In short: as §1

[15] = tested on: HCC1599
In short: as §1

[16] = tested on: HDQ-P1
In short: as §1

[17] = tested on: MDA-MB-468
In short: as §1

[18] = tested on: MDA-MB-453
In short: as §1

| Compound | normalised response [1] [%] | normalised response [2] [%] | normalised response [3] [%] | normalised response [4] [%] | normalised response [5] [%] | normalised response [6] [%] | normalised response [7] [%] | normalised response [8] [%] | normalised response [9] [%] | normalised response [10] [%] | normalised response [11] [%] | normalised response [12] [%] | normalised response [13] [%] | normalised response [14] [%] | normalised response [15] [%] | normalised response [16] [%] | normalised response [17] [%] | normalised response [18] [%] |
| --- | --- | --- | --- | --- | --- | --- | --- | --- | --- | --- | --- | --- | --- | --- | --- | --- | --- | --- |
| CO[C@H]1/C=C\C=C(/C)C(=O)NC2=CC(=O)C(NCCN(C)C)=C(C[C@@H](C)C[C@H](OC)[C@H](O)[C@@H](C)/C=C(\C)[C@@H]1OC(N)=O)C2=O [Alvespimycin] (1000 nM) | -33.1 | 69.6 | 79.2 | 23.5 | 33.3 | 61.3 | 33 | 106 | -15.9 | 45.8 | 87.5 | 107 | 34.5 | 86.5 | 104 | 80 | 34.9 | 82.7 |
| Cc1ccc(C(=O)Nc2ccc(CN3CCN(C)CC3)c(C(F)(F)F)c2)cc1C#Cc1cnc2cccnn12 [Ponatinib] (1000 nM) | 24.4 | 57.4 | 93.3 | 97 | 60.8 | 92.3 | -32.9 | 95.6 | 71.3 | 60.9 | 59.5 | 59.4 | 15 | 96.4 | 103 | 76.6 | 164 | 103 |
| Clc1ccc(Nc2nnc(Cc3ccncc3)c3ccccc23)cc1 [Vatalanib] (1000 nM) | 105 | 109 | 101 | 84.5 | 104 | 97.2 | 118 | 102 | 64.7 | 98.1 | 92.8 | 137 | 134 | 103 | 104 | 105 | 138 | 104 |
| Clc1ccc(Nc2nnc(Cc3ccncc3)c3ccccc23)cc1 [Vatalanib] (10000 nM) | 78.7 | 109 | 107 | 55.9 | 76.8 | 102 | 129 | 107 | 125 | 53.2 | 102 | 118 | 123 | 97.1 | 114 | 114 | 86.5 | 105 |
| Cn1c(Nc2ccc(C(F)(F)F)cc2)nc2cc(Oc3ccnc(-c4ncc(C(F)(F)F)[nH]4)c3)ccc21 [RAF265] (100 nM) | 107 | 100 | 105 | 107 | 86.3 | 100 | 114 | 94.9 | 96.9 | 107 | 100 |  | 109 | 102 | 98.6 | 113 | 115 | 105 |
| CCC1=C[C@@H]2CN(C1)Cc1c([nH]c3ccccc13)[C@@](C(=O)OC)(c1cc3c(cc1OC)N(C)[C@H]1[C@@](O)(C(=O)OC)[C@H](OC(C)=O)[C@]4(CC)C=CCN5CC[C@]31[C@@H]54)C2 [Vinorelbine] (1000 nM) | 27.5 | 18.8 | 96.7 | 26.6 | 68.7 | 61.2 | 20.9 | 76.9 | 104 | 54.8 | 91.7 | 63.8 | 92.5 | 55.2 | 79.5 | -18.4 | 98.1 | 101 |
| CO[C@H]1/C=C\C=C(/C)C(=O)NC2=CC(=O)C(NCCN(C)C)=C(C[C@@H](C)C[C@H](OC)[C@H](O)[C@@H](C)/C=C(\C)[C@@H]1OC(N)=O)C2=O [Alvespimycin] (100 nM) | 101 | 60.4 | 68.1 | 33.3 | 71.6 | 76.6 | 67.9 | 89.6 | 69.1 | 48.7 | 95 | 130 | 118 | 89.6 | 107 | 75.2 | 104 | 91.4 |
| O=P1(NCCCl)OCCCN1CCCl (stereo not given) [Ifosfamide] (1000 nM) | 89.2 | 95.4 | 95.8 | 90 | 100 | 98.2 | 96.2 | 58.7 | 107 | 100 | 99.5 | 107 | 70.1 | 94.9 | 98.7 | 67.6 | 139 | 107 |
| C[C@@H](Oc1cc(-c2cnn(C3CCNCC3)c2)cnc1N)c1c(Cl)ccc(F)c1Cl [Crizotinib] (1000 nM) | 103 | 83.6 | 107 | 95.9 | 76.1 | 98.9 | 115 | 57.6 | 131 | 97.2 | 102 | 131 | 87 | 78.6 | 111 | 72.7 | 123 | 98.3 |
| CN[C@@H]1C[C@H]2O[C@@](C)([C@@H]1OC)n1c3ccccc3c3c4c(c5c6ccccc6n2c5c31)C(=O)N[C@H]4O [UCN-01] (1000 nM) | 47.3 | 40.2 | 78.3 | -24.5 | 29.5 | 70.9 | 32.6 | 94.5 | 53.2 | 89.2 | 59.7 | 78.7 | 106 | 67.8 | 79.3 | 63.7 | 59.7 | 91.4 |
| Cc1ccc(-n2nc(C(C)(C)C)cc2NC(=O)Nc2ccc(OCCN3CCOCC3)c3ccccc23)cc1 [Doramapimod] (1000 nM) | 82.6 | 101 | 95.2 | 101 | 113 | 97.6 | 102 | 87.7 | 104 | 104 | 96.1 | 93.2 | 109 | 100 | 83.8 | 89.6 | 122 | 105 |
| Cn1c(Nc2ccc(C(F)(F)F)cc2)nc2cc(Oc3ccnc(-c4ncc(C(F)(F)F)[nH]4)c3)ccc21 [RAF265] (1000 nM) | 118 | 96.3 | 99.4 | 75.4 | 55.5 | 98.1 | 113 | 107 | 122 | 80.4 | 100 | 81.7 | 82 | 21.6 | 110 | 109 | 145 | 102 |
| CCC1(c2ccc(N)cc2)CCC(=O)NC1=O (stereo not given) [Aminoglutethimide] (1000 nM) | 71.8 | 83.5 | 99.2 | 109 | 105 | 102 | 76.7 | 98.2 | 106 | 104 | 99.8 | 117 | 97.3 | 97.6 | 96.2 | 104 | 177 | 101 |
| CC1(C)NC(=O)N(c2ccc([N+](=O)[O-])c(C(F)(F)F)c2)C1=O [Nilutamide] (1000 nM) | 100 | 103 | 103 | 115 | 103 | 102 | 115 | 103 | 72.8 | 92 | 101 | 123 | 98 | 95.9 | 107 | 88.5 | 115 | 94 |
| CN[C@@H]1C[C@H]2O[C@@](C)([C@@H]1OC)n1c3ccccc3c3c4c(c5c6ccccc6n2c5c31)C(=O)N[C@H]4O [UCN-01] (10000 nM) | -27.6 | 33.5 | 76.1 | -57.5 | -33.4 | 24.5 | 1.94 | 83.2 | 72 | 40.4 | 18.1 | 43.8 | 95.6 | 78.1 | 80.9 | 43.6 | 180 | 78.3 |
| Oc1nc(-c2ccc(C(F)(F)F)cc2)nc2c1CSCC2 [XAV-939] (10000 nM) | 65.4 | 79.7 | 103 | 103 | 105 | 103 | 101 | 95.5 | 103 | 101 | 93.8 | 104 | 93.2 | 101 | 103 | 71.7 | 115 | 94.1 |
| CCC1(c2ccc(N)cc2)CCC(=O)NC1=O (stereo not given) [Aminoglutethimide] (10000 nM) | 127 | 115 | 95.9 | 102 | 89.5 | 90 | 112 | 91.5 | 59.1 | 97 | 99.7 | 104 | 110 | 102 | 101 | 107 | 69 | 96.9 |
| CN(N=O)C(=O)N[C@@H](C=O)[C@@H](O)[C@H](O)[C@H](O)CO [Streptozocin] (1000 nM) | 99 | 95.2 | 107 | 53.9 | 110 | 97.2 | 96.8 | 106 | 113 |  | 106 | 99.5 | 99.3 | 98.3 | 103 | 92.3 | 90.8 | 108 |
| Oc1nc(-c2ccc(C(F)(F)F)cc2)nc2c1CSCC2 [XAV-939] (1000 nM) | 88.9 | 102 | 101 | 67.7 | 103 | 101 | 102 | 102 | 96.1 | 101 | 102 | 106 | 114 | 99.9 | 100 | 77.1 | 118 | 102 |
